Test system: Mitochondria-located protein genes
Test: DNA chip mRNA expression in yeast, mitochondria-located protein genes (Table 2)
Format: cell-based, Saccharomyces cerevisiae S288C
Conditions: cells incubated two hours with the chemical substance
Method in brief: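 Cells were grown at 25° C. in YPD, treated at logarithmic phase for 2 h with a chemical at a concentration inhibiting growth but not causing death, and compared with untreated cultures. Labeled cDNA was hybridized to a DNA chip carrying all yeast genes, and the expression ratio was taken from scanner fluorescence.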

C=CC=O [(14), acrolein]
The level of expressed mRNA in the presence of chemical substance/The level of expressed mRNA in the absence of chemical substance (yeast gene YAL039C): 1.2 | The level of expressed mRNA in the presence of chemical substance/The level of expressed mRNA in the absence of chemical substance (yeast gene YBL022C): 1.0 | The level of expressed mRNA in the presence of chemical substance/The level of expressed mRNA in the absence of chemical substance (yeast gene YBL030C): 0.8 | The level of expressed mRNA in the presence of chemical substance/The level of expressed mRNA in the absence of chemical substance (yeast gene YBL038W): 2.3 | The level of expressed mRNA in the presence of chemical substance/The level of expressed mRNA in the absence of chemical substance (yeast gene YBL099W): 0.6 | The level of expressed mRNA in the presence of chemical substance/The level of expressed mRNA in the absence of chemical substance (yeast gene YBR003W): 0.8 | The level of expressed mRNA in the presence of chemical substance/The level of expressed mRNA in the absence of chemical substance (yeast gene YBR044C): 0.9 | The level of expressed mRNA in the presence of chemical substance/The level of expressed mRNA in the absence of chemical substance (yeast gene YBR091C): 1.7 | The level of expressed mRNA in the presence of chemical substance/The level of expressed mRNA in the absence of chemical substance (yeast gene YBR122C): 1.2 | The level of expressed mRNA in the presence of chemical substance/The level of expressed mRNA in the absence of chemical substance (yeast gene YBR185C): 1.7 | The level of expressed mRNA in the presence of chemical substance/The level of expressed mRNA in the absence of chemical substance (yeast gene YBR221C): 0.8 | The level of expressed mRNA in the presence of chemical substance/The level of expressed mRNA in the absence of chemical substance (yeast gene YBR251W): 1.6 | The level of expressed mRNA in the presence of chemical substance/The level of expressed mRNA in the absence of chemical substance (yeast gene YBR282W): 1.4 | The level of expressed mRNA in the presence of chemical substance/The level of expressed mRNA in the absence of chemical substance (yeast gene YCL057W): 1.0 | The level of expressed mRNA in the presence of chemical substance/The level of expressed mRNA in the absence of chemical substance (yeast gene YCR046C): 1.3 | The level of expressed mRNA in the presence of chemical substance/The level of expressed mRNA in the absence of chemical substance (yeast gene YCR083W): 2.4 | The level of expressed mRNA in the presence of chemical substance/The level of expressed mRNA in the absence of chemical substance (yeast gene YDL067C): 1.4 | The level of expressed mRNA in the presence of chemical substance/The level of expressed mRNA in the absence of chemical substance (yeast gene YDL181W): 1.1 | The level of expressed mRNA in the presence of chemical substance/The level of expressed mRNA in the absence of chemical substance (yeast gene YDL198C): 1.7 | The level of expressed mRNA in the presence of chemical substance/The level of expressed mRNA in the absence of chemical substance (yeast gene YDR079W): 1.5 | The level of expressed mRNA in the presence of chemical substance/The level of expressed mRNA in the absence of chemical substance (yeast gene YDR178W): 1.5 | The level of expressed mRNA in the presence of chemical substance/The level of expressed mRNA in the absence of chemical substance (yeast gene YDR231C): 1.5 | The level of expressed mRNA in the presence of chemical substance/The level of expressed mRNA in the absence of chemical substance (yeast gene YDR258C): 1.5 | The level of expressed mRNA in the presence of chemical substance/The level of expressed mRNA in the absence of chemical substance (yeast gene YDR298C): 1.5 | The level of expressed mRNA in the presence of chemical substance/The level of expressed mRNA in the absence of chemical substance (yeast gene YDR347W): 1.5 | The level of expressed mRNA in the presence of chemical substance/The level of expressed mRNA in the absence of chemical substance (yeast gene YDR377W): 1.4 | The level of expressed mRNA in the presence of chemical substance/The level of expressed mRNA in the absence of chemical substance (yeast gene YDR529C): 1.5 | The level of expressed mRNA in the presence of chemical substance/The level of expressed mRNA in the absence of chemical substance (yeast gene YEL024W): 1.1 | The level of expressed mRNA in the presence of chemical substance/The level of expressed mRNA in the absence of chemical substance (yeast gene YEL039C): 1.4 | The level of expressed mRNA in the presence of chemical substance/The level of expressed mRNA in the absence of chemical substance (yeast gene YER178W): 0.9 | The level of expressed mRNA in the presence of chemical substance/The level of expressed mRNA in the absence of chemical substance (yeast gene YFL016C): 0.8 | The level of expressed mRNA in the presence of chemical substance/The level of expressed mRNA in the absence of chemical substance (yeast gene YGL018C): 1.2 | The level of expressed mRNA in the presence of chemical substance/The level of expressed mRNA in the absence of chemical substance (yeast gene YGL187C): 0.9 | The level of expressed mRNA in the presence of chemical substance/The level of expressed mRNA in the absence of chemical substance (yeast gene YGL191W): 1.6 | The level of expressed mRNA in the presence of chemical substance/The level of expressed mRNA in the absence of chemical substance (yeast gene YGR008C): 1.3 | The level of expressed mRNA in the presence of chemical substance/The level of expressed mRNA in the absence of chemical substance (yeast gene YGR028W): 1.2 | The level of expressed mRNA in the presence of chemical substance/The level of expressed mRNA in the absence of chemical substance (yeast gene YGR062C): 1.2 | The level of expressed mRNA in the presence of chemical substance/The level of expressed mRNA in the absence of chemical substance (yeast gene YGR076C): 2.3 | The level of expressed mRNA in the presence of chemical substance/The level of expressed mRNA in the absence of chemical substance (yeast gene YGR082W): 0.9 | The level of expressed mRNA in the presence of chemical substance/The level of expressed mRNA in the absence of chemical substance (yeast gene YGR174C): 1.6 | The level of expressed mRNA in the presence of chemical substance/The level of expressed mRNA in the absence of chemical substance (yeast gene YGR244C): 1.2 | The level of expressed mRNA in the presence of chemical substance/The level of expressed mRNA in the absence of chemical substance (yeast gene YHR008C): 1.6 | The level of expressed mRNA in the presence of chemical substance/The level of expressed mRNA in the absence of chemical substance (yeast gene YIL155C): 1.3 | The level of expressed mRNA in the presence of chemical substance/The level of expressed mRNA in the absence of chemical substance (yeast gene YJL096W): 2.1 | The level of expressed mRNA in the presence of chemical substance/The level of expressed mRNA in the absence of chemical substance (yeast gene YJL102W): 1.5 | The level of expressed mRNA in the presence of chemical substance/The level of expressed mRNA in the absence of chemical substance (yeast gene YJL133W): 0.7 | The level of expressed mRNA in the presence of chemical substance/The level of expressed mRNA in the absence of chemical substance (yeast gene YJL166W): 1.9 | The level of expressed mRNA in the presence of chemical substance/The level of expressed mRNA in the absence of chemical substance (yeast gene YJL180C): 1.4 | The level of expressed mRNA in the presence of chemical substance/The level of expressed mRNA in the absence of chemical substance (yeast gene YJR045C): 0.5 | The level of expressed mRNA in the presence of chemical substance/The level of expressed mRNA in the absence of chemical substance (yeast gene YJR077C): 0.7

From patent US8192962B2, “Processes for detecting toxic substances” (Daikin Industries, Ltd., priority 2001, dated 2012)
